Results as given in patent US20150240220A1, “NOVEL UDP-GLYCOSYLTRANSFERASE DERIVED FROM GINSENG AND USE THEREOF” (KOREA ADVANCED INSTITUTE OF SCIENCE AND TECHNOLOGY, priority 2012, published 2015).

What was measured:
[1] = system: PgPPDS (protopanaxadiol synthase); test: Quantitative RT-PCR of PgPPDS expression in ginseng leaves sprayed with MeJA; type: in vivo, Panax ginseng; conditions: 200 μM MeJA sprayed on leaves of 15-month-old ginseng everyday for 5 days, samples on 6th day; normalized to tubulin
Method: (§1) Total RNA was isolated from the leaf or root of 15-month-old ginseng using a spectrum plant total RNA kit (Sigma-Aldrich). 200 μM methyl jasmonate (MeJA) was sprayed onto the leaves of ginseng everyday for a total of 5 days, and samples were collected on the 6th day. The 1 μg of total RNA was used for cDNA synthesis.
(§2) Expression levels of different genes were examined by a quantitative RT-PCR using the primer sets listed in the following Table 2, and the results were normalized to the expression level of tubulin.
(§3) The 15-month old ginseng grown in a growth chamber under LD conditions was collected, and MeJA was sprayed onto its leaves everyday for a total of 5 days. To analyze expression level of the ginsenoside biosynthetic genes, samples were collected on the 6th days. […] However, expression of PgPPTS was not induced by MeJA under the conditions of the present invention.

PgUGT74A1 [2] = test: Quantitative RT-PCR of PgUGT74A1 expression in ginseng leaves sprayed with MeJA; type: in vivo, Panax ginseng; conditions: 200 μM MeJA sprayed on leaves of 15-month-old ginseng everyday for 5 days, samples on 6th day; normalized to tubulin
Method: as §1, §2, §3

ginseng = test: Concentrations of 4 major ginsenosides after spraying MeJA onto the leaf of ginseng; type: in vivo, Panax ginseng; conditions: MeJA sprayed onto the leaf of ginseng; versus untreated
Method: as §1
In this regard, the concentrations of 4 major ginsenosides were measured after spraying MeJA onto the leaf of ginseng. The treatment of MeJA increased the concentrations of two PPD-type ginsenosides, Rd and Rb1, by 1.55 and 1.14 times respectively (FIG. 6c). In addition, the treatment of MeJA increased the concentrations of two PPT-type ginsenosides, Rg1 and Re, by 2.61 and 1.45 times respectively.

PgUGT94B1 [3] = test: Quantitative RT-PCR of PgUGT94B1 expression in ginseng leaves sprayed with MeJA; type: in vivo, Panax ginseng; conditions: 200 μM MeJA sprayed on leaves of 15-month-old ginseng everyday for 5 days, samples on 6th day; normalized to tubulin
Method: as §1, §2, §3

[4] = system: PgDS (dammarenediol-II synthase); test: Quantitative RT-PCR of PgDS expression in ginseng leaves sprayed with MeJA; type: in vivo, Panax ginseng; conditions: 200 μM MeJA sprayed on leaves of 15-month-old ginseng everyday for 5 days, samples on 6th day; normalized to tubulin
Method: as §1, §2, §3

[5] = system: PgPPTS (protopanaxatriol synthase); test: Quantitative RT-PCR of PgPPTS expression in ginseng leaves sprayed with MeJA; type: in vivo, Panax ginseng; conditions: 200 μM MeJA sprayed on leaves of 15-month-old ginseng everyday for 5 days, samples on 6th day; normalized to tubulin
Method: as §1, §2, §3

PgUGT74A1 [6] = test: In vitro glycosyltransferase assay with purified recombinant PgUGT74A1; type: biochemical, Panax ginseng; conditions: ginsenoside 5 mM, UDP-glucose 50 mM, enzyme 30 μg, pH 7, 35° C., 12 hours
Method: (§4) A glycosyltransferase assay was performed in a reaction buffer (10 mM PBS buffer, pH 7) containing the purified PgUGT74A1 or PgUGT94B1 (30 μg), a ginsenoside compound (5 mM) and UDP-glucose (50 mM). For this assay, 10 different types of ginsenosides including PPD (Protopanaxadiol), PPT (Protopanaxatriol), Compound K (C-K), ginsenoside Rg3, Rh2, F2, Rd, Rg2, Rh1 and F1 were used, and the structures of the ginsenosides are shown in FIG. 1.
(§5) The reaction mixture was incubated at 35° C. for 12 hours, and then the products were analyzed by thin-layer chromatography (TLC) or high performance liquid chromatography (HPLC).
(§6) TLC analysis was performed using a mobile phase (acetone:methanol:DDW=65:35:10 vol/vol) and a 60F254 silica gel plate (Merck, Germany). The resolved product on the TLC plate was detected by spraying the plate with 10% (vol/vol) sulfuric acid (H2SO4) and heating it at 110° C. for 5 minutes.
(§7) HPLC analysis was performed using ODS (2) C18 column (Phenomenex, USA). Water and acetonitrile gradient application time; and a component ratio are as follows: at a flow rate of 1 ml per minute for 0 minute, 68% water and 32% acetonitrile; 8 minutes, 35% water and 65% acetonitrile; 12 minutes, 0% water and 100% acetonitrile; 20 minutes, 0% water and 100% acetonitrile; 20.1 minutes, 68% water and 32% acetonitrile; and 28 minutes, 68% water and 32% acetonitrile.
(§8) Ginsenosides were detected by using a UV-detector (Younglin, Korea) at a wavelength of 203 nm.
First, the recombinant PgUGT of Example 1, PgUGT74A1, was incubated with 10 different types of ginsenosides (PPD, C-K, Rh2, F2, Rg3, Rd, Rg2, Rh1, F1 and PPT) in the presence of UDP-glucose, and the products converted by the recombinant PgUGT were analyzed by TLC.

PgUGT94B1 [7] = test: In vitro glycosyltransferase assay with purified recombinant PgUGT94B1; type: biochemical, Panax ginseng; conditions: ginsenoside 5 mM, UDP-glucose 50 mM, enzyme 30 μg, pH 7, 35° C., 12 hours
Method: as §4, §5, §6, §7, §8
First, the recombinant PgUGT of Example 1, PgUGT94B1, was incubated with 10 different types of ginsenosides (PPD, C-K, Rh2, F2, Rg3, Rd, Rg2, Rh1, F1 and PPT) in the presence of UDP-glucose, and then the products converted by the recombinant PgUGT were analyzed by TLC.

PgUGT74A1 and PgUGT94B1 = test: In vitro glycosyltransferase assay with both PgUGT74A1 and PgUGT94B1 in a single reaction tube; type: biochemical, Panax ginseng; conditions: both enzymes in a single reaction tube, in the presence of UDP-Glc
Method: PPD (upper panel) or C-K (lower panel) was incubated with both of PgUGT74A1 and PgUGT94B1 in the presence of UDP-Glc. Then the reaction mixture was analyzed by HPLC. […] Rg3 and Rd converted by the above two enzymes are marked as black triangles;
as §4, §5
HPLC analysis was performed using ODS (2) C18 column (Phenomenex, USA). […]
Ginsenosides were detected by using a UV-detector (Younglin, Korea) at a wavelength of 203 nm. […]

SMILES | conversion of the ginsenoside by PgUGT74A1 (HPLC analysis) (PgUGT74A1 [6]) | conversion of the ginsenoside by PgUGT94B1 (HPLC analysis) (PgUGT94B1 [7]) | conversion of the ginsenoside by PgUGT94B1 (TLC analysis) (PgUGT94B1 [7]) | conversion of the ginsenoside by PgUGT74A1 (TLC analysis) (PgUGT74A1 [6]) | conversion of the ginsenoside by PgUGT74A1 and PgUGT94B1 together (HPLC analysis) (PgUGT74A1 and PgUGT94B1) | further results
CC/C=C\C[C@H]1C(=O)CC[C@@H]1CC(=O)OC [MeJA, Methyl(1R,2R)-3-Oxo-2-(2Z)-2-pentenyl-cyclopentaneacetate] | – | – | – | – | – | expression of PgPPDS after MeJA treatment [1]: enhanced the expression; expression level of PgUGT74A1 after MeJA treatment (PgUGT74A1 [2]): higher expression level; increase of the concentration of PPD-type ginsenoside Rb1 by MeJA treatment (ginseng): 1.14 times; increase of the concentration of PPD-type ginsenoside Rd by MeJA treatment (ginseng): 1.55 times; increase of the concentration of PPT-type ginsenoside Re by MeJA treatment (ginseng): 1.45 times; increase of the concentration of PPT-type ginsenoside Rg1 by MeJA treatment (ginseng): 2.61 times; expression level of PgUGT94B1 after MeJA treatment (PgUGT94B1 [3]): higher expression level; expression of PgDS after MeJA treatment [4]: enhanced the expression; expression of PgPPTS after MeJA treatment [5]: not induced
CC(C)=CCC[C@](C)(O[C@@H]1O[C@H](CO)[C@@H](O)[C@H](O)[C@H]1O)[C@H]1CC[C@]2(C)[C@@H]1[C@H](O)C[C@@H]1[C@@]3(C)CC[C@H](O[C@@H]4O[C@H](CO)[C@@H](O)[C@H](O)[C@H]4O)C(C)(C)[C@@H]3CC[C@]12C [ginsenoside F2] | did not convert ginsenoside Rh2 and F2 | converted ginsenoside Rh2 and F2 into ginsenoside Rg3 and Rd respectively | converted ginsenoside Rh2 and ginsenoside F2 into ginsenoside Rg3 and ginsenoside Rd respectively | – | – | –
CC(C)=CCC[C@](C)(O)[C@H]1CC[C@]2(C)[C@@H]1[C@H](O)C[C@@H]1[C@@]3(C)CC[C@H](O[C@@H]4O[C@H](CO)[C@@H](O)[C@H](O)[C@H]4O)C(C)(C)[C@@H]3CC[C@]12C [ginsenoside Rh2] | did not convert ginsenoside Rh2 and F2 | converted ginsenoside Rh2 and F2 into ginsenoside Rg3 and Rd respectively | converted ginsenoside Rh2 and ginsenoside F2 into ginsenoside Rg3 and ginsenoside Rd respectively | – | – | –
CC(C)=CCCC(C)(O)[C@H]1CC[C@]2(C)[C@@H]1[C@H](O)C[C@@H]1[C@@]3(C)CC[C@H](O)C(C)(C)[C@@H]3CC[C@]12C (stereo in doubt) [PPD, Protopanaxadiol] | converted PPD and C-K into ginsenoside Rh2 and F2 respectively | did not convert PPD and C-K into other ginsenosides | – | converted PPD and C-K into ginsenoside Rh2 and ginsenoside F2 respectively | successfully converted into Rg3 | –
CC(C)=CCC[C@](C)(O[C@@H]1O[C@H](CO)[C@@H](O)[C@H](O)[C@H]1O)[C@H]1CC[C@]2(C)[C@@H]1[C@H](O)C[C@@H]1[C@@]3(C)CC[C@H](O)C(C)(C)[C@@H]3CC[C@]12C [C-K, Compound K] | converted PPD and C-K into ginsenoside Rh2 and F2 respectively | did not convert PPD and C-K into other ginsenosides | – | converted PPD and C-K into ginsenoside Rh2 and ginsenoside F2 respectively | successfully converted into Rd | –
